The results in this text go back to patent publication US7718688B2, “Nitrobenzindoles and their use in cancer therapy” (Auckland Uniservices Limited, priority 2004, dated 2010).

Data set [1] concerns HT29: human colon cancer cell line. The data set is described as follows: Proliferation IC50 assay, oxic/hypoxic, HT29. Format: cell-based. Particulars: for IC50: Homo sapiens, HT-29, 4 h exposure under aerobic conditions; for HCR HT29: IC50(aerobic)/IC50(hypoxic); for HCR (hypoxic cytotoxicity ratio) HT29: IC50(aerobic)/IC10(hypoxic).
In data set [2] the test system is SKOV3: human ovarian carcinoma cell line. Nature of the data set: Proliferation IC50 assay, oxic/hypoxic, SKOV3. The data set is classed as cell-based. To be noted: for IC50: Homo sapiens, SK-OV-3, 4 h exposure under aerobic conditions; for HCR SKOV3: IC50(aerobic)/IC50(hypoxic); for HCR (hypoxic cytotoxicity ratio) SKOV3: IC50(aerobic)/IC10(hypoxic).

A word on the melting point: it is the temperature, or range, at which the solid turns liquid. One may read the IC50 as the concentration that gives 50% inhibition. Lower therefore signals inhibition by little substance.

With `COc1cc2cc(C(=O)N3CC(CCl)c4c3cc(N)c3ccc(S(C)(=O)=O)cc43)[nH]c2c(OC)c1OC` (centres unmarked) [Compound 63, 5-Amino-1-(chloromethyl)-8-(methylsulfonyl)-3-(5,6,7-trimethoxyindol-2-carbonyl)-1,2-dihydro-3H-benzo[e]indole], the melting point fell in the range of 165 to 170 °C. For the same compound, in data set [1] (Table 4), the IC50 was found to be 25 nM and the “HCR HT29” value was found to be 1.0. For the same compound, in data set [2] (Table 4), 19 nM corresponded to half-maximal inhibition (IC50) and the “HCR SKOV3” value came to 1.4.
On to `COC(=O)c1ccc2c3c(cc(N)c2c1)N(C(=O)c1cc2cc(OCCN(C)C)ccc2[nH]1)CC3CCl` (centres unmarked) [Compound 54, Methyl 5-amino-1-(chloromethyl)-3-{5-[2-(dimethylamino)ethoxy]indol-2-carbonyl}-1,2-dihydro-3H-benzo[e]indole-7-carboxylate], for which the melting point lay within 225 to 230 °C. In data set [1] (Table 4), half-maximal inhibition (IC50) required 8.6 nM and the “HCR HT29” value stood at 1.7. In data set [2] (Table 4), inhibition was half-maximal at 7.7 nM (IC50) and the “HCR SKOV3” value is listed as 0.91.
Consider `CC(=O)c1ccc2c([N+](=O)[O-])cc3c(c2c1)C(CCl)CN3C(=O)c1cc2cc(OCCN(C)C)ccc2[nH]1` (centres unmarked) [Compound 41, 8-Acetyl-1-(chloromethyl)-3-{5-[2-(dimethylamino)ethoxy]indol-2-carbonyl}-5-nitro-1,2-dihydro-3H-benzo[e]indole], for which the melting point is 210 to 215 °C. In data set [1] (Table 3), the IC50 was determined as 150 nM and the “HCR (hypoxic cytotoxicity ratio) HT29” value is given as 1.1. In addition, in data set [2] (Table 3), the IC50 was 200 nM and the “HCR (hypoxic cytotoxicity ratio) SKOV3” value was found to be 1.3.
Turning to `CN(C)CCOc1ccc2[nH]c(C(=O)N3CC(CCl)c4c3cc(N)c3cc(S(C)(=O)=O)ccc43)cc2c1` (centres unmarked) [Compound 58, 5-Amino-1-(chloromethyl)-3-{5-[2-(dimethylamino)ethoxy]indol-2-carbonyl}-7-(methylsulfonyl)-1,2-dihydro-3H-benzo[e]indole], the melting point was in the range of 280 to 285 °C. Further, in data set [1] (Table 4), half-maximal inhibition (IC50) was put at 11 nM and the “HCR HT29” value is given as 1.6. For the same compound, in data set [2] (Table 4), the IC50 turned out to be 14 nM and the “HCR SKOV3” value amounted to 1.7.
For `COc1cc2cc(C(=O)N3CC(CCl)c4c3cc(N)c3cc(S(N)(=O)=O)ccc43)[nH]c2c(OC)c1OC` (centres unmarked) [Compound 59, 5-Amino-1-(chloromethyl)-3-(5,6,7-trimethoxyindol-2-carbonyl)-1,2-dihydro-3H-benzo[e]indole-7-sulfonamide], the melting point is 240 to 245 °C (dec.). Also, in data set [1] (Table 4), half-maximal inhibition (IC50) required 86 nM and the “HCR HT29” value is recorded as 1.1. Also, in data set [2] (Table 4), the IC50 is 41 nM and the “HCR SKOV3” value came out at 1.3.
Take `CC(=O)c1ccc2c3c(cc(N)c2c1)N(C(=O)c1cc2cc(OCCN(C)C)ccc2[nH]1)CC3CCl` (centres unmarked) [Compound 53, 7-Acetyl-5-amino-1-(chloromethyl)-3-{5-[2-(dimethylamino)ethoxy]indol-2-carbonyl}-1,2-dihydro-3H-benzo[e]indole]: the melting point is 220 to 224 °C (dec.). In data set [1] (Table 4), the 50% inhibitory concentration (IC50) was found to be 7.6 nM and the “HCR HT29” value was found to be 1.5. In addition, in data set [2] (Table 4), inhibition was half-maximal at 11 nM (IC50) and the “HCR SKOV3” value is reported as 1.4.
`COc1cc2cc(C(=O)N3CC(CCl)c4c3cc([N+](=O)[O-])c3cc(C(N)=O)ccc43)[nH]c2c(OC)c1OC` (centres unmarked) [Compound 15, 1-(Chloromethyl)-5-nitro-3-[5,6,7-trimethoxyindol-2-carbonyl]-1,2-dihydro-3H-benzo[e]indole-7-carboxamide] came in with a melting point of 287 to 289 °C. In data set [1] (Table 3), the 50% inhibitory concentration (IC50) is 7900 nM and the “HCR (hypoxic cytotoxicity ratio) HT29” value was 2.8. Besides, in data set [2] (Table 3), 5800 nM corresponded to half-maximal inhibition (IC50) and the “HCR (hypoxic cytotoxicity ratio) SKOV3” value is listed as 6.1.
